PMC6902473 (Clinical Epigenetics, 2019)
“And” between values parts separate entries of the source, which are not always exact repeats. Identical values can stand only once.

Test: Plasma pharmacokinetics of vorinostat after oral administration (non-compartmental analysis)
From the text: The assays were validated according to the common FDA and EMA guidelines on bioanalytical method validation.

[1] = 530 mg/m2/d oral, plasma, maximum of 3 values
[2] = 530 mg/m2/d oral, plasma, minimum of 3 values

For `O=C(CCCCCCC(=O)Nc1ccccc1)NO` [vorinostat], the “Clearance, Maximum” value [1] was 678 L/h, the “Cmax, Maximum” value [1] was 0.629 µg/mL and the “Clearance, Minimum” value [2] was 241 L/h. The “Cmax, Minimum” value [2] was 0.451 µg/mL, the “Vz, Minimum” value [2] was 508 L and the t1/2 (dose level 130 mg/m2/d, mean) was 2.16 h. For the same compound, the t1/2 (dose level 130 mg/m2/d, median) was 2.16 h, the t1/2 (dose level 180 mg/m2/d, mean) was 2.22 h and the t1/2 (dose level 330 mg/m2/d, mean) was 2.13 h. It also gave an AUC(0-t) (human, in vivo, 130 mg/m2) of 1.14 µg·h/mL, a Clearance (human, in vivo, 130 mg/m2) of 167 L/h and a Vz (human, in vivo, 130 mg/m2) of 563 L. The AUC(0-t) (human, in vivo, 130 mg/m2, AUClast) was 4.32 µM·h and 970 ng·h/mL, the Clearance (human, in vivo, 130 mg/m2, Clearance) was 108 L/h and the Cmax (human, in vivo, 130 mg/m2, Cmax) was 1.02 µM and 269 ng/mL. For the same compound, the Vd (human, in vivo, 130 mg/m2, Vz) was 336 L, the Clearance (human, in vivo, 180 mg/m2) was 225 L/h and the Tmax (human, in vivo, 180 mg/m2) was 2.39 h. For the same compound, the Vz (human, in vivo, 180 mg/m2) was 681 L, the t1/2 (human, in vivo, 180 mg/m2) was 1.93 h and the AUC(0-t) (human, in vivo, 180 mg/m2, AUClast) was 3.75 µM·h and 992 ng·h/mL. The Clearance (human, in vivo, 180 mg/m2, Clearance) was 182 L/h, the Cmax (human, in vivo, 180 mg/m2, Cmax) was 1.06 µM and 281 ng/mL and the Tmax (human, in vivo, 180 mg/m2, Tmax) was 1.5 h. The Vd (human, in vivo, 180 mg/m2, Vz) was 490 L, the Clearance (human, in vivo, 214 mg/m2) was 399 L/h and the AUC(0-t) (human, in vivo, 214 mg/m2, AUClast) was 2.52 µM·h and 666 ng·h/mL. The Clearance (human, in vivo, 214 mg/m2, Clearance) was 399 L/h, the Cmax (human, in vivo, 214 mg/m2, Cmax) was 1.29 µM and 341 ng/mL and the half-life (human, in vivo, 214 mg/m2, t1/2) was 1.12 h. The AUCtotal (human, in vivo, 230 mg/m2) was 1.31 µg·h/mL, the Clearance (human, in vivo, 230 mg/m2) was 257 L/h and the Vz (human, in vivo, 230 mg/m2) was 640 L. For the same compound, the AUC(0-t) (human, in vivo, 230 mg/m2, AUClast) was 4.89 µM·h and 1290 ng·h/mL, the Clearance (human, in vivo, 230 mg/m2, Clearance) was 221 L/h and the Cmax (human, in vivo, 230 mg/m2, Cmax) was 1.44 µM and 380 ng/mL. For the same compound, the Tmax (human, in vivo, 230 mg/m2, Tmax) was 1.5 h, the Vd (human, in vivo, 230 mg/m2, Vz) was 532 L and the half-life (human, in vivo, 230 mg/m2, t1/2) was 1.63 h. It also gave a Clearance (human, in vivo, 250 mg/m2) of 189 L/h, a Tmax (human, in vivo, 250 mg/m2) of 1.75 h and a t1/2 (human, in vivo, 250 mg/m2) of 1.48 h. The AUC(0-t) (human, in vivo, 250 mg/m2, AUClast) was 5.77 µM·h and 1520 ng·h/mL, the Clearance (human, in vivo, 250 mg/m2, Clearance) was 189 L/h and the Tmax (human, in vivo, 250 mg/m2, Tmax) was 1.75 h. The Vd (human, in vivo, 250 mg/m2, Vz) was 398 L, the half-life (human, in vivo, 250 mg/m2, t1/2) was 1.48 h and the AUC(0-t) (human, in vivo, 280 mg/m2) was 4.96 µM·h. For the same compound, the Clearance (human, in vivo, 280 mg/m2) was 195 L/h, the Tmax (human, in vivo, 280 mg/m2) was 2.09 h and the t1/2 (human, in vivo, 280 mg/m2) was 1.83 h. The AUC(0-t) (human, in vivo, 280 mg/m2, AUClast) was 1310 ng·h/mL and 6.33 µM·h, the Clearance (human, in vivo, 280 mg/m2, Clearance) was 207 L/h and the Tmax (human, in vivo, 280 mg/m2, Tmax) was 1.5 h. It also gave a half-life (human, in vivo, 280 mg/m2, t1/2) of 1.5 h, a Clearance (human, in vivo, 330 mg/m2) of 149 L/h and a Tmax (human, in vivo, 330 mg/m2) of 2.00 h. For the same compound, the Vz (human, in vivo, 330 mg/m2) was 427 L, the AUC(0-t) (human, in vivo, 330 mg/m2, AUClast) was 8.06 µM·h and 2130 ng·h/mL and the Clearance (human, in vivo, 330 mg/m2, Clearance) was 126 L/h. For the same compound, the Cmax (human, in vivo, 330 mg/m2, Cmax) was 1.83 µM and 483 ng/mL, the Tmax (human, in vivo, 330 mg/m2, Tmax) was 2.5 h and the Vd (human, in vivo, 330 mg/m2, Vz) was 429 L. The half-life (human, in vivo, 330 mg/m2, t1/2) was 1.89 h, the AUC(0-t) (human, in vivo, 380 mg/m2, AUClast) was 14.2 µM·h and 3750 ng·h/mL and the Cmax (human, in vivo, 380 mg/m2, Cmax) was 3.38 µM and 893 ng/mL. The Tmax (human, in vivo, 380 mg/m2, Tmax) was 4.3 h, the Clearance (human, in vivo, 430 mg/m2) was 174 L/h and the Tmax (human, in vivo, 430 mg/m2) was 1.00 h. For the same compound, the t1/2 (human, in vivo, 430 mg/m2) was 2.49 h, the AUC(0-t) (human, in vivo, 430 mg/m2, AUClast) was 6.39 µM·h and 1690 ng·h/mL and the Clearance (human, in vivo, 430 mg/m2, Clearance) was 174 L/h. The Vd (human, in vivo, 430 mg/m2, Vz) was 661 L, the half-life (human, in vivo, 430 mg/m2, t1/2) was 2.49 h and the Clearance (human, in vivo, 480 mg/m2) was 237 L/h. The AUC(0-t) (human, in vivo, 480 mg/m2, AUClast) was 14.2 µM·h and 3760 ng·h/mL, the Clearance (human, in vivo, 480 mg/m2, Clearance) was 237 L/h and the Cmax (human, in vivo, 480 mg/m2, Cmax) was 4.64 µM and 1230 ng/mL. It also gave a Tmax (human, in vivo, 480 mg/m2, Tmax) of 0.5 h, a Vd (human, in vivo, 480 mg/m2, Vz) of 421 L and a Cmax (human, in vivo, Cmax) greater than 0.27 µg/mL. For the same compound, the AUC0_0-inf/D (human, in vivo, po) was 5.49 ± 2.75 (ng/mL*h)/(mg/d) and the Clearance (human, in vivo, po) was 235 ± 149 L/h.
